These compounds were tested against T1, XIAP BIR-3 (Homo sapiens, UniProt P98170) (assay: Fluorescence polarization binding to XIAP BIR-3 (competition with AbuRPF-K(5-Fam)-NH2)). Conditions: XIAP BIR-3 (default where cell does not indicate otherwise); reported as range class.
T1 construct: 40 nM of the BIR3 for 15 min at RT
Description: (§1) The binding affinities of the compounds are reported as a Kd value. Briefly, various concentrations of test peptides were mixed with 5 nM of the fluorescently labeled peptide (i.e., a mutated N-terminal Smac peptide—AbuRPF-K(5-Fam)-NH2) and 40 nM of the BIR3 for 15 min at RT in […] of 0.1M Potassium Phosphate buffer, pH 7.5 containing […] bovine g-globulin. Following incubation, the polarization values (mP) were measured on a Victor2V (available from PerkinElmer Life Sciences) using a 485 nm excitation filter and a 520 nm emission filter. The reported Kd values are supplied as ranges (A=<0.1 μM, B=0.1 μM to C=>1 μM to 10 μM, D=>10 μM) and, unless otherwise indicated, are the Kd for XIAP BIR-3.

T1 sequence (P98170 241-356 limits assumed): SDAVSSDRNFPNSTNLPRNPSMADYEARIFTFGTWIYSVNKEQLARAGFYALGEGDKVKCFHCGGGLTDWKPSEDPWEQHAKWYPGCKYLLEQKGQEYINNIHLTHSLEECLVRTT

| Compound | Kd [nM] |
| --- | --- |
| CCN[C@@H](C)C(=O)N[C@H](C(=O)N1CC[C@H](OC)[C@H]1Cc1cn(C)c2cc(F)ccc12)[C@@H](C)OC [A′] | > 100 |
| CN[C@@H](C)C(=O)N[C@H](C(=O)N1CC[C@@H](O)[C@H]1Cc1c(-c2ccc(F)cc2)[nH]c2ccccc12)C(C)C [BBB] | < 100 |
| CC[C@H](NC)C(=O)N[C@H](C(=O)N1C[C@@H](O)C[C@H]1Cc1c[nH]c2ncccc12)C1CCCCC1 [B] | < 100 |
| CN[C@@H](C)C(=O)N[C@H](C(=O)N1CC[C@H](OC)[C@H]1Cc1cn(C)c2cc(F)ccc12)[C@@H](C)OC [B′] | < 100 |
| CN[C@@H](C)C(=O)N[C@H](C(=O)N1C[C@@H](O)C[C@H]1Cc1c[nH]c2ncccc12)[C@@H](C)OC [Compound A, N-{1-[4-Hydroxy-2-(1H-pyrrolo[2,3-b]pyridin-3-ylmethyl)-pyrrolidine-1-carbonyl]-2-methoxy-propyl}-2-methylamino-propionamide] | < 100 |
| CCN[C@@H](CC)C(=O)N[C@H](C(=O)N1CCC[C@H]1Cc1c[nH]c2c1ccc[n+]2[O-])[C@@H](C)OC [Compound R] | > 100 |
| CN[C@@H](C)C(=O)N[C@H](C(=O)N1CCC[C@H]1Cc1c[nH]c2ncccc12)[C@@H](C)OC [D] | < 100 |
| CC[C@H](NC)C(=O)N[C@H](C(=O)N1CC[C@H](OC)[C@H]1Cc1c[nH]c2cc(F)ccc12)[C@@H](C)OC [D′] | > 10000 |
| CC[C@H](NC)C(=O)N[C@H](C(=O)N1CC[C@@H](O)[C@H]1Cc1c[nH]c2ccccc12)[C@@H](C)O [EE′] | < 100 |
| CN[C@@H](C)C(=O)N[C@H](C(=O)N1CCC[C@H]1Cc1c[nH]c2ncccc12)C(C)(C)C [E] | < 100 |
| CN[C@@H](C)C(=O)N[C@H](C(=O)N1CC[C@@H](O)[C@H]1Cc1c[nH]c2ccccc12)[C@@H](C)O [FF′] | < 100 |
| CCN[C@@H](C)C(=O)N[C@H](C(=O)N1CC[C@H](OC)[C@H]1Cc1c[nH]c2ncccc12)C(C)(C)C [GG] | 1000 to 10000 |
| CCN[C@@H](CC)C(=O)N[C@H](C(=O)N1CCC[C@H]1Cc1c[nH]c2ncccc12)[C@@H](C)OC [G] | < 100 |
| CCN[C@@H](C)C(=O)N[C@H](C(=O)N1CC[C@H](OC)[C@H]1Cc1c[nH]c2cc(F)ccc12)[C@@H](C)OC [G′] | > 10000 |
| CCN[C@@H](C)C(=O)N[C@H](C(=O)N1CC[C@H](OC)[C@H]1Cc1c[nH]c2ncccc12)[C@@H](C)OC [HH] | 1000 to 10000 |
| CC[C@H](NC)C(=O)N[C@H](C(=O)N1CC[C@@H](O)[C@H]1Cc1c[nH]c2ccccc12)[C@@H](C)OC [HH′] | < 100 |
| CCN[C@@H](C)C(=O)N[C@H](C(=O)N1CCC[C@H]1Cc1c[nH]c2ncccc12)[C@@H](C)OC [H] | < 100 |
| CN[C@@H](C)C(=O)N[C@H](C(=O)N1CC[C@H](OC)[C@H]1Cc1c[nH]c2cc(F)ccc12)C(C)(C)C [H′] | > 10000 |
| CCN[C@@H](C)C(=O)N[C@H](C(=O)N1CC[C@H](OC)[C@H]1Cc1c[nH]c2ncccc12)C(C)C [II] | 1000 to 10000 |
| CN[C@@H](C)C(=O)N[C@H](C(=O)N1CC[C@@H](O)[C@H]1Cc1c[nH]c2ccccc12)[C@@H](C)OC [II′] | < 100 |
| CCNCC(=O)N[C@H](C(=O)N1CCC[C@H]1Cc1c[nH]c2ncccc12)[C@@H](C)OC [I] | > 100 |

Now from value to compound:

| Kd [nM] | Compound |
| --- | --- |
| < 100 | CN[C@@H](C)C(=O)N[C@H](C(=O)N1CC[C@H](O)[C@H]1Cc1c[nH]c2cc(F)ccc12)[C@@H](C)OC (relative stereo) [RR, trans-2R—[N-{1-[2-(6-Fluoro-1H-indol-3-ylmethyl)-3-hydroxy-pyrrolidine-1-carbonyl]-2-methoxy-propyl}]-2-methylamino-propionamide] |
| > 100 | CN[C@@H](C)C(=O)N[C@H](C(=O)N1CC[C@H](C)[C@H]1Cc1c[nH]c2cc(F)ccc12)[C@@H](C)OC [JJ, N-{1-{1-2-(6-fluoro-1H-indol-3-ylmethyl)-3-methyl-pyrrolidine-1-carbonyl]-2-methoxy-propyl}-2-methylamino-propionamide] |
| > 100 | CN[C@@H](C)C(=O)N[C@H](C(=O)N1CC[C@@H](O)[C@H]1Cc1c(-c2ccc(F)cc2)[nH]c2ccccc12)C1CCCCC1 [KKK] |
| > 10000 | CC[C@H](NC)C(=O)N[C@H](C(=O)N1CC[C@H](C)[C@H]1Cc1c[nH]c2cc(F)ccc12)[C@@H](C)OC [KK] |
| > 10000 | CN[C@@H](CO)C(=O)N[C@H](C(=O)N1CC[C@H](C)[C@H]1Cc1c[nH]c2cc(F)ccc12)[C@@H](C)OC [LL] |
| < 100 | CN[C@@H](C)C(=O)N[C@H](C(=O)N1CC[C@@H](O)[C@H]1Cc1c[nH]c2ccccc12)C1CCCCC1 [LL′, N-{1-Cyclohexyl-2-[3-hydroxy-2-(1H-indol-3-ylmethyl)-pyrrolidin-1-yl]-2-oxo-ethyl}-2-methylamino-propionamide] |
| > 10000 | CN[C@@H](C)C(=O)N[C@H](C(=O)N1CC[C@H](OC)[C@H]1Cc1c[nH]c2cc(F)ccc12)[C@@H](C)OC [L′] |
| 1000 to 10000 | CCN[C@@H](C)C(=O)N[C@H](C(=O)N1CC[C@H](C)[C@H]1Cc1c[nH]c2cc(F)ccc12)[C@@H](C)OC [MM] |
| 1000 to 10000 | CN[C@@H](C)C(=O)N[C@H](C(=O)N1CC[C@H](C)[C@H]1Cc1c[nH]c2cc(F)ccc12)[C@@H](C)O [NN] |
| 1000 to 10000 | CCNCC(=O)N[C@H](C(=O)N1CCC[C@H]1Cc1c[nH]c2ncccc12)C(C)(C)C [N] |
| > 100 | CN[C@@H](C)C(=O)N[C@H](C(=O)N1CC[C@H](OC)[C@H]1Cc1c(Cl)[nH]c2cc(F)ccc12)[C@@H](C)O [N′] |
| < 100 | CN[C@@H](CO)C(=O)N[C@H](C(=O)N1CCC[C@H]1Cc1c[nH]c2ncccc12)C(C)(C)C [O] |
| > 100 | CC[C@H](NC)C(=O)N[C@H](C(=O)N1CC[C@H](OC)[C@H]1Cc1c(Cl)[nH]c2cc(F)ccc12)[C@@H](C)O [O′] |
| > 10000 | CN[C@@H](CO)C(=O)N[C@H](C(=O)N1CC[C@H](C)[C@H]1Cc1c[nH]c2cc(F)ccc12)[C@@H](C)O [PP] |
| < 100 | CN[C@@H](C)C(=O)N[C@H](C(=O)N1CCC[C@H]1Cc1c[nH]c2c1ccc[n+]2[O-])[C@@H](C)OC [P] |
| < 100 | CN[C@@H](C)C(=O)N[C@H](C(=O)N1CC[C@H](OC)[C@H]1Cc1c(Cl)[nH]c2cc(F)ccc12)[C@@H](C)OC [P′] |
| > 10000 | CCN[C@@H](C)C(=O)N[C@H](C(=O)N1CC[C@H](C)[C@H]1Cc1c[nH]c2cc(F)ccc12)[C@@H](C)O [QQ] |
| > 100 | CCN[C@@H](C)C(=O)N[C@H](C(=O)N1CCC[C@H]1Cc1c[nH]c2c1ccc[n+]2[O-])[C@@H](C)OC [Q] |
| > 100 | CC[C@H](NC)C(=O)N[C@H](C(=O)N1CC[C@H](OC)[C@H]1Cc1c(Cl)[nH]c2cc(F)ccc12)[C@@H](C)OC [Q′] |
| > 100 | CCN[C@@H](C)C(=O)N[C@H](C(=O)N1CC[C@H](OC)[C@H]1Cc1c(Cl)[nH]c2cc(F)ccc12)[C@@H](C)OC [R′] |
| < 100 | CN[C@@H](C)C(=O)N[C@H](C(=O)N1CCC[C@H]1Cc1c[nH]c2c1ccc[n+]2[O-])C(C)(C)C [S] |
| 1000 to 10000 | CN[C@@H](CO)C(=O)N[C@H](C(=O)N1CC[C@H](OC)[C@H]1Cc1c(Cl)[nH]c2cc(F)ccc12)[C@@H](C)OC [S′] |
| < 100 | CC[C@H](NC)C(=O)N[C@H](C(=O)N1CC[C@H](O)[C@H]1Cc1c[nH]c2cc(F)ccc12)[C@@H](C)OC [TT] |
| < 100 | CC[C@H](NC)C(=O)N[C@H](C(=O)N1CCC[C@H]1Cc1cn(C)c2ncccc12)[C@@H](C)OC [T] |
| < 100 | CN[C@@H](C)C(=O)N[C@H](C(=O)N1CC[C@H](O)[C@H]1Cc1c[nH]c2cc(F)ccc12)C(C)(C)C [UU] |
| < 100 | CN[C@@H](C)C(=O)N[C@H](C(=O)N1CCC[C@H]1Cc1cn(C)c2ncccc12)[C@@H](C)OC [U] |
| < 100 | CC[C@H](NC)C(=O)N[C@H](C(=O)N1CC[C@H](O)[C@H]1Cc1c[nH]c2cc(F)ccc12)C(C)(C)C [VV] |
| < 100 | CN[C@@H](C)C(=O)N[C@H](C(=O)N1CC[C@H](O)[C@H]1Cc1cn(C)c2cc(F)ccc12)[C@@H](C)OC [YY] |
| < 100 | CN[C@@H](C)C(=O)N[C@H](C(=O)N1CCC[C@H]1Cc1c(-c2ccccc2)n(C)c2ncccc12)[C@@H](C)OC [Y] |
| < 100 | CCN[C@@H](C)C(=O)N[C@H](C(=O)N1CC[C@H](O)[C@H]1Cc1cn(C)c2cc(F)ccc12)[C@@H](C)OC [ZZ] |

Each compound was assayed against T2, cIAP-1 BIR-3 (Homo sapiens, UniProt Q13490) (assay: Fluorescence polarization binding to cIAP-1 BIR-3 (competition with AbuRPF-K(5-Fam)-NH2)). Conditions: cells marked (cIAP-1): cIAP-1 BIR-3; reported as range class.
T2 construct: "cIAP-1 BIR-3"
T2 sequence (Q13490 266-343 limits assumed): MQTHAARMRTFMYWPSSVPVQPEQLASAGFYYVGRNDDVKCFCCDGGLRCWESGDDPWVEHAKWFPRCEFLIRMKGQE
Description: as §1

| Kd [nM] | Compound |
| --- | --- |
| < 100 | CCN[C@@H](C)C(=O)N[C@H](C(=O)N1CC[C@H](O)[C@H]1Cc1c[nH]c2ncccc12)C(C)(C)C [AA] |
| > 100 | CCc1ccc2c(c1)[C@@H](C[C@@H]1C[C@H](O)CN1C(=O)[C@@H](NC(=O)[C@H](C)NC)C1CCCCC1)CN2C(C)=O [BBBB] |
| < 100 | CN[C@@H](C)C(=O)N[C@H](C(=O)N1CC[C@H](O)[C@H]1Cc1c[nH]c2ncccc12)[C@@H](C)OC [BB] |
| < 100 | CC[C@H](NC)C(=O)N[C@H](C(=O)N1CC[C@H](O)[C@H]1Cc1c(Cl)[nH]c2cc(F)ccc12)[C@@H](C)OC [BB′] |
| > 100 | CCN[C@@H](C)C(=O)N[C@H](C(=O)N1C[C@@H](O)C[C@H]1C[C@H]1CN(C(C)=O)c2ccc(CC)cc21)C1CCCCC1 [CCCC] |
| < 100 | CCN[C@@H](C)C(=O)N[C@H](C(=O)N1CC[C@@H](O)[C@H]1Cc1c(-c2ccc(F)cc2)[nH]c2ccccc12)[C@@H](C)O [CCC] |
| < 100 | CCN[C@@H](C)C(=O)N[C@H](C(=O)N1CC[C@H](O)[C@H]1Cc1c[nH]c2ncccc12)[C@@H](C)OC [CC] |
